Source: patent US20200171015A1, “METHODS OF TREATMENT FOR CYSTIC FIBROSIS” (Vertex Pharmaceuticals Incorporated, priority 2017, published 2020)
Marks after values point to notes of the source that are not given here.

Tests used:
[1] = Example 4: randomized, double-blind, placebo-controlled single- and multiple-dose escalation study, safety and tolerability; type: in vivo, human; settings: healthy volunteers
Text: A randomized, double-blind, placebo-controlled, single- and multiple-dose, dose-escalation study was conduced in healthy volunteer subjects. Subjects were randomized to receive Compound I or placebo (Part A and Part B), and triple combination of Compound I, Compound II, and Compound III, or triple placebo (Part C).

[2] = test system: people with CF who have two copies of the F508del mutation (F/F); test: Phase 2 study Part 2: efficacy (ppFEV1, sweat chloride); type: in vivo, human; settings: Part 2 F/F
Experimental: (§1) The safety of Compound I in triple combination with Compounds II and III is evaluated in CF subjects in a 2-part, randomized, double-blind, placebo- and Compound II/III-controlled, parallel-group, multicenter study. Parts 1 and 2 include a Screening Period, a 2-week Treatment Period, and a Safety Follow-up Visit. Part 2 also includes a 4-week Run-in Period before the Treatment Period and a 2-week Washout Period after the Treatment Period.
In Part 2, two dose levels of Compound I (200 and 300 mg q12h) in triple combination with Compound II (100 mg qd) and Compound III (150 mg q12h) is evaluated in subjects with the F508del/F508del genotype.
Part 2 has two cohorts (Cohorts 2A and 2B). In Cohort 2A, the triple combination of Compound I at 200 mg q12h, Compound II at 100 mg qd, and Compound III at 150 mg q12h is evaluated in subjects with the F508del/F508del genotype. In Cohort 2B, the triple combination of Compound I at 300 mg q12h, Compound II at 100 mg qd, and Compound III at 150 mg q12h is evaluated in subjects with the F508del/F508del genotype. The combination of placebo, Compound II, and Compound III is the comparator for both cohorts.
(§2) Primary endpoints for the study include: safety and tolerability assessments based on adverse events (AEs), clinical laboratory values, standard 12-lead electrocardiograms (ECGs), vital signs, and pulse oximetry. Secondary endpoints include: absolute change in sweat chloride concentrations from baseline at Day 15; absolute change in percent predicted forced expiratory volume in 1 second (ppFEV1) from baseline at Day 15; relative change in ppFEV1 from baseline at Day 15; absolute change in Cystic Fibrosis Questionnaire-Revised (CFQ-R) respiratory domain score from baseline at Day 15; and PK parameters of Compound I, Compound II, Compound III, and metabolites of Compounds II and III.
(§3) In this Phase 2 randomized, double-blind study, Compound I (100 mg, 200 mg and 300 mg q12h) in combination with Compound II (100 mg qd) and Compound III (150 mg q12h) in people with CF ages 18 and older who have one F508del mutation and one minimal function mutation and in people who have two copies of the F508del mutation was studied. Primary endpoints as described above in Example 6 were for safety and tolerability. Secondary endpoints included absolute change in ppFEV1 and change in sweat chloride.
In Part 2 of the study, the triple combination was evaluated for two weeks in 14 patients ages 18 and older who had two copies of the F508del mutation, who were already receiving the combination of Compound II and Compound III (4 weeks, 4 in placebo and 10 in Compound I 200 mg). A summary of the within-group lung function (ppFEV) (primary endpoint) and sweat chloride data (secondary endpoint) for the triple combination treatment period, from baseline (end of the 4-week Compound II/Compound III run-in period), through Day 15 is provided below.
A summary of the within-group lung function (ppFEV) (primary endpoint) and sweat chloride data (secondary endpoint) from patients in Part 2 of the study who received the triple combination including 300 mg of Compound I for 4 weeks is provided below.

[3] = Previous studies of Compound I, safety and tolerability; type: in vivo, human
CFTR = settings: disclosed in PCT Publication No. WO 2016/057572; cited from earlier work
[4] = test system: people with CF who have one F508del mutation and one minimal function mutation (F/MF); test: Phase 2 study Part 1: efficacy (ppFEV1, sweat chloride, CFQ-R); type: in vivo, human; settings: Part 1 F/MF
Experimental: as §1
In Part 1, three dose levels of Compound I (100, 200, and 300 mg q12h) in triple combination with Compound II (100 mg qd) and Compound III (150 mg q12h) is evaluated in subjects with the F508del/MF genotype.
Part 1 has three cohorts (Cohorts IA, IB, and IC). In Cohort 1A, the triple combination of Compound I at 100 mg q12h, Compound II at 100 mg qd, and Compound III at 150 mg q12h is evaluated in subjects with the F508del/MF genotype. In Cohort IB, the triple combination of Compound I at 200 mg q12h, Compound II at 100 mg qd, and Compound III at 150 mg q12h is evaluated in subjects with the F508del/MF genotype. In Cohort IC, the triple combination of Compound I at 300 mg q12h, Compound II at 100 mg qd, and Compound III at 150 mg q12h is evaluated in subjects with the F508del/MF genotype. Triple placebo is the comparator for all three cohorts
as §2, §3
In Part 1 of the study, the triple combination was evaluated for two weeks in 34 patients ages 18 and older who had one F508de/mutation and one minimal function mutation (8 in combined placebo, 6 in Compound I 100 mg, 10 in Compound 1 200 mg, and 10 in Compound 1 300 mg). A summary of the within-group ppFEV (primary endpoint) and sweat chloride data (secondary endpoint) through Day 15 is provided below.

[5] = Preclinical reproductive toxicology studies; settings: in vivo
[6] = Compound I 200 mg in triple combination with Compound II and Compound III, n 10
[7] = Compound I 300 mg in triple combination with Compound II and Compound III, n 21
[8] = Compound I 100 mg in triple combination with Compound II and Compound III, n 6

With `CC(C)COc1cc(F)cc(-c2ccc(C(=O)NS(=O)(=O)c3cccc(N)n3)c(N3C[C@@H](C)CC3(C)C)n2)c1` [Compound I, N-[(6-amino-2-pyridyl)sulfonyl]-6-(3-fluoro-5-isobutoxy-phenyl)-2-[(4S)-2,2,4-trimethylpyrrolidin-1-yl]pyridine-3-carboxamide] the “Deaths, serious or severe adverse events” value ([1]; all parts of the study) was “no deaths or serious or severe adverse events”, the “Severity of adverse events” value ([1]; all parts of the study) was “mild or moderate” and the Dose-limiting adverse events ([1]; multiple doses of 800 mg q12h) was “Dose-limiting adverse events were observed”. For the same molecule, the Tolerability ([1]; multiple doses up to 400 mg q12h for 14 days) was “well tolerated”, the Tolerability ([1]; single doses from 50 mg up to 2000 mg) was “well tolerated” and the Tolerability ([1]; up to 300 mg q12h in triple combination with Compound II (100 mg qd) and Compound III (150 mg q12h) for 13 days) was “well tolerated”. For the same molecule, the “Sweat Chloride, Abs. Change from Baseline, Day 15 Results” value [2, 6] was −21.3, the “ppFEV1, Abs. Change from Baseline, Day 15 Results” value [2, 6] was 7.3 and the “Sweat Chloride, Abs. Change from Baseline, Day 15 Results” value [2, 7] was −23.9. The “Sweat Chloride, Abs. Change from Baseline, Day 29 Results” value [2, 7] was −22.3, the “ppFEV1, Abs. Change from Baseline, Day 15 Results” value [2, 7] was 5.1 and the “ppFEV1, Abs. Change from Baseline, Day 29 Results” value [2, 7] was 6.5. The Safety and tolerability ([3]; multiple doses up to 300 mg q12h in combination with Compound II (100 mg qd) and Compound III (150 mg q12h), after 14 days of dosing) was “generally safe and tolerated”, the Safety and tolerability ([3]; single doses up to 2000 mg and multiple doses up to 400 mg q12h) was “generally safe and well tolerated” and the Hemolysis ([3]; subjects with glucose-6-phosphate dehydrogenase (G6PD) deficiency) was “treatment-emergent hemolysis in a subject who was found to have glucose-6-phosphate dehydrogenase (G6PD) deficiency”. For the same molecule, the “EC30 as CFTR modulator” value (CFTR) was less than 3000 nM, the “Sweat Chloride, Abs. Change from Baseline, Day 15 Results” value [4, 8] was −19.5 and the “ppFEV1, Abs. Change from Baseline, Day 15 Results” value [4, 8] was 5.7. The “ppFEV1, Abs. Change from Baseline, Day 15 Results” value [4, 6] was 9.7, the “Sweat Chloride, Abs. Change from Baseline, Day 15 Results” value ([4]; Compound I 200 mg in triple combination with Compound II and Compound III, n 10, missing data from 2 subjects) was −13.6^a and the “Sweat Chloride, Abs. Change from Baseline, Day 15 Results” value ([4]; Compound I 300 mg in triple combination with Compound II and Compound III, n 10) was −27.5. For the same molecule, the “ppFEV1, Abs. Change from Baseline, Day 15 Results” value ([4]; Compound I 300 mg in triple combination with Compound II and Compound III, n 10, missing data from 2 subjects) was 8.0^a and the “Findings in preclinical reproductive toxicology studies” value [5] was “no adverse findings of note”.
